Where “and” joins values, the source holds several entries; their conditions need not be identical. Equal values may be shown once. Ends that are not written are not given here.
Columns and labels:
[1] = test system: immature monocyte-derived dendritic cells (moDC); assay: Multiplex xMAP assessment of cytokine production by immature monocyte-derived dendritic cells; format: cell-based, human
Procedure: Immature monocyte-derived dendritic cells (moDC) were obtained from primary monocytes by a differentiation protocol involving a cytokine cocktail with IL-4 and GM-CSF [38]. For this, the monocytes were cultured in complete RPMI-1640 containing 10% HS, 1×AA solution, 500 U/mL rhIL-4 (Sci-Store, Moscow, Russia) and 800 U/mL rhGM-CSF (Sci-Store) for 3 days. Then, the cells were re-fed with the fresh medium with rhIL-4 and rhGM-CSF and cultured for 4 more days.
(§1) For the study of the immunomodulatory properties of NaD1, monocytes and immature dendritic cells (moDC) were seeded into the wells of a 24-well plate at densities of 4 × 10^5 and 1.3 × 10^5 cells per well, respectively, in complete RPMI-1640 with 10% HS and AA solution. Then, 24 h later, the culture medium was replaced by a fresh one either with 2 μM NaD1 for stimulation of the cells or without if for the control wells. The cultures were kept in a humidified CO2-intubator for 24 h and then the samples of the culture media were taken and frozen.
(§2) The absolute levels of 48 cytokines, chemokines and growth factors were determined at a protein level by multiplex xMAP technology (Luminex, Austin, TX, USA). For this, a MILLIPLEX Human Panel A kit (HCYTA-60K-PX48, Merck, Darmstadt, Germany) was used and the following 48 analytes were evaluated in two biological replications: sCD40L, EGF, CCL11/Eotaxin-1, FGF-basic/FGF-2, Flt-3 ligand, CX3CL1/Fractalkine, G-CSF, GM-CSF, GROα, IFNα2, IFN-γ, IL-1α, IL-1β, IL-1RA, IL-2, IL-3, IL-4, IL-5, IL-6, IL-7, CXCL8/IL-8, IL-9, IL-10, IL-12(p40), IL-12(p70), IL-13, IL-15, IL-17A/CTLA8, IL-17E/IL-25, IL-17F, IL-18, IL-22, IL-27, CXCL10/IP-10, CCL2/MCP-1, CCL7/MCP-3, M-CSF, CCL22/MDC, CXCL9/MIG, CCL3/MIP-1α, CCL4/MIP-1β, PDGF-AA, PDGF-AB/BB, CCL5/RANTES, TGF-α, TNF-α, TNF-β and VEGF-A. The fluorescent data were obtained on a MAGPIX system (Merck) operated with xPONENT 4.2 software (Merck). Final analysis was performed in MILLIPLEX Analyst v5.1 software (Merck).

primary monocytes = assay: Multiplex xMAP assessment of cytokine production by primary monocytes; format: cell-based, human; conditions: monocytes + 2 μM NaD1, 24 h
Source text: Peripheral blood mononuclear cells (PBMCs) from healthy donors were purchased from American Type Culture Collection (ATCC PCS-800-011). Primary monocytes were isolated from PBMCs by adherence to the plastic surface. For that, PBMCs were thawed, resuspended in RPMI-1640 culture medium (Corning, Corning, NY, USA) without serum at a concentration of 2 × 10^6 cells/mL, seeded into the wells of a 24-well plate and placed in a humidified CO2-intubator (CellXpert C170i, Eppendorf, Hamburg, Germany) for 1 h. After that, non-adherent cells were removed from the wells and attached monocytes were thoroughly washed with PBS and cultured in a CO2-intubator in complete RPMI-1640 containing 10% human serum (HS Type AB, Capricorn Scientific, Ebsdorfergrund, Germany) and 1×antibiotic-antimycotic (1×AA) solution (Sigma, St. Louis, MO, USA).
as §1, §2

Substance: NaD1: Recombinant tobacco floral defensin NaD1 (UNIPROT Q8GTM0), obtained by heterologous expression in E. coli; FITC-labeled in the permeability assay (RECKTESNTFPGICITKPPCRKACISEKFTDGHCSKILRRCLCTKPC; cysteine pairing not given here; also: FITC label; UniProt Q8GTM0 26-72, looked up)
- sCD40L absolute level ([1]; immature moDCs + 2 μM NaD1, 24 h, two biological replications, untreated control 116.89): 92.12 pg/mL
- IL-2 absolute level ([1]; moDCs + 2 μM NaD1, 24 h, control 0.51): <0.35↓ pg/ml
- IFNg absolute level ([1]; moDCs + 2 μM NaD1, 24 h, control 0.81): <0.61↓ pg/ml
- IL-18 absolute level ([1]; moDCs + 2 μM NaD1, 24 h, control 1.17): 0.78 pg/mL
- IL-10 absolute level ([1]; moDCs + 2 μM NaD1, 24 h, control 1.76): <1.29↓ pg/ml
- IL-6 absolute level ([1]; moDCs + 2 μM NaD1, 24 h, control 1.92): 0.85 pg/mL
- IL-9 absolute level ([1]; moDCs + 2 μM NaD1, 24 h, control 2.31): 0.83 pg/mL
- IP-10 absolute level ([1]; moDCs + 2 μM NaD1, 24 h, control 2.51): 2.51 pg/mL
- GM-CSF absolute level ([1]; moDCs + 2 μM NaD1, 24 h, control 3.8): 2.87 pg/mL
- IL-4 absolute level ([1]; moDCs + 2 μM NaD1, 24 h, control 4.21): 4.38 pg/mL
- GROa absolute level ([1]; moDCs + 2 μM NaD1, 24 h, control 5.3): 2.88 pg/mL
- EGF absolute level ([1]; moDCs + 2 μM NaD1, 24 h, control 5.38): 3.12 pg/mL
- TGF-a absolute level ([1]; moDCs + 2 μM NaD1, 24 h, control 6.04): 4.68 pg/mL
- IL-12 (p40) absolute level ([1]; moDCs + 2 μM NaD1, 24 h, control 6.14): <2.07↓ pg/ml
- G-CSF absolute level ([1]; moDCs + 2 μM NaD1, 24 h, control 6.59): 6.59 pg/mL
- IL-13 absolute level ([1]; moDCs + 2 μM NaD1, 24 h, control 10.99): <2.24↓ pg/ml
- IL-1b absolute level ([1]; moDCs + 2 μM NaD1, 24 h, control 12.11): 5.8 pg/mL
- IL-1a absolute level ([1]; moDCs + 2 μM NaD1, 24 h, control 12.13): 15.76 pg/mL
- IFNa2 absolute level ([1]; moDCs + 2 μM NaD1, 24 h, control 13.22): 7.1 pg/mL
- PDGF-AA absolute level ([1]; moDCs + 2 μM NaD1, 24 h, control 14.68): 12.15 pg/mL
- Fractalkine absolute level ([1]; moDCs + 2 μM NaD1, 24 h, control 26.94): 20.9 pg/mL
- TNFa absolute level ([1]; moDCs + 2 μM NaD1, 24 h, control 45.9): 30.64 pg/mL
- MCP-3 absolute level ([1]; moDCs + 2 μM NaD1, 24 h, control 62.22): 44.12 pg/mL
- MIP-1a absolute level ([1]; moDCs + 2 μM NaD1, 24 h, control 62.72): 35.36 pg/mL
- MIG absolute level ([1]; moDCs + 2 μM NaD1, 24 h, control 76.28): 16.72 pg/mL
- FGF-2 absolute level ([1]; moDCs + 2 μM NaD1, 24 h, control 78.9): 71.22 pg/mL
- IL-27 absolute level ([1]; moDCs + 2 μM NaD1, 24 h, control 80.06): 68.79 pg/mL
- M-GSF absolute level ([1]; moDCs + 2 μM NaD1, 24 h, control 101.68): 45.07 pg/mL
- IL-1RA absolute level ([1]; moDCs + 2 μM NaD1, 24 h, control 199.63): 133 pg/mL and 133.58 pg/mL
- MIP-1b absolute level ([1]; moDCs + 2 μM NaD1, 24 h, control 204.09): 120 pg/mL and 120.19 pg/mL
- MCP-1 absolute level ([1]; moDCs + 2 μM NaD1, 24 h, control 514.13): 288 pg/mL and 288.04 pg/mL
- MDC absolute level ([1]; moDCs + 2 μM NaD1, 24 h, control 1484): 1278 pg/mL
- IL-8 absolute level ([1]; moDCs + 2 μM NaD1, 24 h, control 1856): 1037 pg/mL
- IL-7 absolute level ([1]; moDCs + 2 μM NaD1, 24 h, control <0.32): <0.32↓ pg/ml
- IL-5 absolute level ([1]; moDCs + 2 μM NaD1, 24 h, control <0.33): <0.33↓ pg/ml
- FLT-3L absolute level ([1]; moDCs + 2 μM NaD1, 24 h, control <0.61): <0.61↓ pg/ml
- RANTES absolute level ([1]; moDCs + 2 μM NaD1, 24 h, control <0.73): <0.73↓ pg/ml
- IL-3 absolute level ([1]; moDCs + 2 μM NaD1, 24 h, control <0.77): <0.77↓ pg/ml
- TNFb absolute level ([1]; moDCs + 2 μM NaD1, 24 h, control <0.78): <0.78↓ pg/ml
- IL-17A absolute level ([1]; moDCs + 2 μM NaD1, 24 h, control <1.00): <1.00↓ pg/ml
- VEGFa absolute level ([1]; moDCs + 2 μM NaD1, 24 h, control <1.44): <1.44↓ pg/ml
- IL-12 (p70) absolute level ([1]; moDCs + 2 μM NaD1, 24 h, control <1.79): <1.79↓ pg/ml
- IL-15 absolute level ([1]; moDCs + 2 μM NaD1, 24 h, control <1.84): <1.84↓ pg/ml
- Eotaxin absolute level ([1]; moDCs + 2 μM NaD1, 24 h, control <3.80): <3.80↓ pg/ml
- PDGF-AB/BB absolute level ([1]; moDCs + 2 μM NaD1, 24 h, control <5.75): <5.75↓ pg/ml
- IL-22 absolute level ([1]; moDCs + 2 μM NaD1, 24 h, control <9.00): <9.00↓ pg/ml
- IL-17F absolute level ([1]; moDCs + 2 μM NaD1, 24 h, control <16.98): <16.98↓ pg/ml
- IL-17E/IL-25 absolute level ([1]; moDCs + 2 μM NaD1, 24 h, control <25.82): <25.82↓ pg/ml
- IL-2 absolute level (primary monocytes; control 0.36): 0.51 pg/mL
- TGF-a absolute level (primary monocytes; control 0.73): 0.73 pg/mL
- IFNg absolute level (primary monocytes; control 0.81): 1.13 pg/mL
- IL-5 absolute level (primary monocytes; control 0.87): <0.33↓ pg/ml
- IL-4 absolute level (primary monocytes; control 1.25): 1.44 pg/mL
- IL-18 absolute level (primary monocytes; control 1.81): 2.95 pg/mL
- TNFb absolute level (primary monocytes; control 1.89): 1.49 pg/mL
- IL-12 (p40) absolute level (primary monocytes; control 2.8): 2.8 pg/mL
- IL-15 absolute level (primary monocytes; control 4.96): 4.19 pg/mL
- IL-9 absolute level (primary monocytes; control 5.17): 3.78 pg/mL
- IL-1a absolute level (primary monocytes; control 5.33): 7.2 pg/mL
- IL-10 absolute level (primary monocytes; control 6.18): 6.66 pg/mL
- G-CSF absolute level (primary monocytes; control 10.38): 6.59 pg/mL
- IL-13 absolute level (primary monocytes; control 10.99): 5.29 pg/mL
- IL-1b absolute level (primary monocytes; control 12.11): 12.11 pg/mL
- EGF absolute level (primary monocytes; control 12.18): 14.11 pg/mL
- IFNa2 absolute level (primary monocytes; control 13.22): 18.46 pg/mL
- IL-6 absolute level (primary monocytes; control 27.82): 26.88 pg/mL
- MIP-1a absolute level (primary monocytes; control 29.35): 27.88 pg/mL
- MIP-1b absolute level (primary monocytes; control 29.57): 34.19 pg/mL
- PDGF-AA absolute level (primary monocytes; control 35.56): 43.29 pg/mL
- Fractalkine absolute level (primary monocytes; control 41.58): 32.26 pg/mL
- FGF-2 absolute level (primary monocytes; control 45.68): 71.22 pg/mL
- VEGFa absolute level (primary monocytes; control 54.1): 52.47 pg/mL
- TNFa absolute level (primary monocytes; control 77.73): 79.94 pg/mL
- MCP-1 absolute level (primary monocytes; control 82.06): 75.95 pg/mL
- MCP-3 absolute level (primary monocytes; control 120.38): 119.63 pg/mL
- IL-27 absolute level (primary monocytes; control 121.25): 94.48 pg/mL
- RANTES absolute level (primary monocytes; control 184.29): 402.83 pg/mL
- IL-1RA absolute level (primary monocytes; control 204.3): 204.3 pg/mL
- IP-10 absolute level (primary monocytes; control 290.24): 390.23 pg/mL
- GROa absolute level (primary monocytes; control 342.86): 261.06 pg/mL
- MDC absolute level (primary monocytes; control 879.89): 759.82 pg/mL
- PDGF-AB/BB absolute level (primary monocytes; control 984.71): 1457 pg/mL
- MIG absolute level (primary monocytes; control 1021): 1301 pg/mL
- IL-8 absolute level (primary monocytes; control 9181): 6023 pg/mL
- IL-7 absolute level (primary monocytes; control <0.32): <0.32↓ pg/ml
- FLT-3L absolute level (primary monocytes; control <0.61): 0.69 pg/mL
- IL-3 absolute level (primary monocytes; control <0.77): <0.77↓ pg/ml
- IL-17A absolute level (primary monocytes; control <1.00): <1.00↓ pg/ml
- GM-CSF absolute level (primary monocytes; control <1.30): <1.30↓ pg/ml
- IL-12 (p70) absolute level (primary monocytes; control <1.79): <1.79↓ pg/ml
- Eotaxin absolute level (primary monocytes; control <3.80): <3.80↓ pg/ml
- IL-22 absolute level (primary monocytes; control <9.00): <9.00↓ pg/ml
- IL-17F absolute level (primary monocytes; control <16.98): <16.98↓ pg/ml
- M-GSF absolute level (primary monocytes; control <23.97): <23.97↓ pg/ml
- IL-17E/IL-25 absolute level (primary monocytes; control <25.82): <25.82↓ pg/ml
- sCD40L absolute level (primary monocytes; two biological replications, untreated control 151.36): 151.36 pg/mL
